For 38 compounds, inhibition and IC50 results are on record in patent US5455267A, “Chromone derivative, and aldose reductase inhibitor comprising said compound as active component” (Tsumura & Co., priority 1990, dated 1995).

In the experiment the target is T1, aldose reductase (Rattus norvegicus, UniProt P07943).
T1 construct: The crystalline lenses were homogenized in 135 mM sodium-potassium-phosphate buffer (pH 7.0) and centrifuged; from tissue; host or cells: lens of 6 week-old Wistar rats (30,000 rpm supernatant of homogenate)
The experiment in a line: Determination of Aldose Reductase Activity (In Vitro). Format: biochemical, rat (Wistar). The settings on record: Table 3; for inhibition at 10 µM: at the concentration of 10 μM, read-out: Inhibition rate %; for IC50: rat lens aldose reductase, 20 mM glucose, 30 min, 30° C, pH 7.0, read-out: 50% Inhibition Conc. [IC50 (M)]. On the procedure:
6 week-old Wistar rats were sacrificed under ether anesthesia, and immediately lenses were removed and stored at -20° C. The crystalline lenses were homogenized in 135 mM sodium-potassium-phosphate buffer (pH 7.0) and centrifuged for 30 min. at 30,000 rpm. The supernatant was used as an aldose-reductase solution. The above procedure was carried out at 4° C. The enzyme solution was stored at -20° C.
The measurement of aldose reductase activity was conducted according to the method as described by Duffane et al. (Biochemical Medicine, 32:99-105 (1984)).
That is, 100 gl of the above enzyme solution and 100 gl of a solution prepared by dissolving a compound obtained in the following example to a final concentration of from 1.0×10^-5 to 4.0×10^-7 M in dimethylsulfoxide (DMSO) were added to 800 gl of 135 mM sodium-potassium-phosphate buffer (pH 7.0) containing 100 mM lithium sulfate, 0.03 mM NADPH (reduced form of nicotinamide adeninc dinucleotide phosphate) and 20 mM glucose as a substrate. The sample was allowed to react for 30 min. at 30° C. The reaction was stopped by addition of 0.3 ml of 0.5N hydrochloric acid. The NADP (oxided form of nicotinamide adenine dinucleotide) formed during the above reaction was converted into a fluorescent substance by addition of 1 ml of 6N sodium hydroxide containing 10 mM imidazole. 30 min. thereafter, the sample was measured for fluorescence intensity at the fluorescence wavelength of 460 nm (excitation wavelength: 360 nm) using a fluorescence photometer F-4000 (manufactured by Hitachi, Ltd.) at room temperature. A sample containing DMSO in place of the present compound was used as a control, and its fluorescence intensity was determined in the same manner as above.
Aldose reductase is an enzyme to convert DL-glyceraldehyde or glucose into polyol in the presence of NADPH as a coenzyme. As this reaction proceeds, NADPH is converted into NADP, so that the smaller amount of NADP formed indicates higher inhibition of aldose reductase. […]

Molecules are shown by their SMILES.

For `COc1c(OC(C)=O)cc2oc(Sc3ccc(O)cc3)cc(=O)c2c1OC(C)=O` [Compound 1 obtained in Example 28, 5,7-diacetoxy-2-(4-hydroxyphenylthio)-6-methoxychromone], the inhibition at 10 µM stood at 95.4% and the IC50 was 1.7e-07 M.
Taken in the same sequence, the figures for `COc1c(OC(C)C)cc2oc([S+]([O-])c3ccc(O)cc3)cc(=O)c2c1OC` (stereo not shown) [Compound 1 obtained in Example 34, 5,6-dimethoxy-2-(4-hydroxyphenylsulfinyl)-7-isopropoxychromone] were 98% and 4.6e-07 M.
As to `COc1c(OC(C)=O)cc2oc(Sc3ccc(O)cc3)cc(=O)c2c1O` [Compound 2 obtained in Example 28, 7-acetoxy-5-hydroxy-2-(4-hydroxyphenylthio)-6-methoxychromone], the inhibition at 10 µM came to 95.4% and the 50% inhibitory concentration (IC50) worked out at 3e-07 M.
Taken in the same sequence, the figures for `COc1c(OC(C)C)cc2oc(S(=O)(=O)c3ccc(O)cc3)cc(=O)c2c1OC` [Compound 2 obtained in Example 34, 5,6-dimethoxy-2-(4-hydroxyphenylsulfonyl)-7-isopropoxychromone] were 96.6% and 1e-06 M.
Consider `COc1cc(O)c2c(=O)cc(Nc3ccc(O)cc3)oc2c1` [Compound 2 obtained in Example 77, 5-hydroxy-2-(4-hydroxyanilino)-7-methoxychromone], for which the inhibition at 10 µM turned out to be 40%.
`COc1cc2oc(Sc3ccc(O)cc3)cc(=O)c2c(O)c1OC` [Example 2, 5-hydroxy-2-(4-hydroxyphenylthio)-6,7-dimethoxychromone]: the inhibition at 10 µM was 87.1% and the IC50 was 1.1e-07 M.
Consider `CCOc1cc2oc(Sc3ccc(O)cc3)cc(=O)c2c(OCC)c1OC` [Example 11, 5,7-diethoxy-2-(4-hydroxyphenylthio)-6-methoxychromone], for which the inhibition at 10 µM was 98.5% and the half-maximal inhibitory concentration (IC50) was 4e-08 M.
Taken in the same sequence, the figures for `CCCOc1cc2oc(Sc3ccc(O)cc3)cc(=O)c2c(OCCC)c1OC` [Example 12, 5,7-dipropoxy-2-(4-hydroxyphenylthio)-6-methoxychromone] were 93% and 1.5e-07 M.
Taken in the same sequence, the figures for `COc1c(OC(C)C)cc2oc(Sc3ccc(O)cc3)cc(=O)c2c1OC(C)C` [Example 13, 5,7-diisopropoxy-2-(4-hydroxyphenylthio)-6-methoxychromone] were 93.7% and 1.8e-08 M.
With `CCCCOc1cc2oc(Sc3ccc(O)cc3)cc(=O)c2c(OCCCC)c1OC` [Example 14, 5,7-dibutoxy-2-(4-hydroxyphenylthio)-6-methoxychromone], the inhibition at 10 µM came to 86.8% and the IC50 stood at 1.9e-07 M.
The corresponding values for `CCC(C)Oc1cc2oc(Sc3ccc(O)cc3)cc(=O)c2c(OC(C)CC)c1OC` (stereo not shown) [Example 15, 5,7-di-s-butoxy-2-(4-hydroxyphenylthio)-6-methoxychromone] are 98.4% and 3.8e-08 M.
Consider `COc1c(OCC(C)C)cc2oc(Sc3ccc(O)cc3)cc(=O)c2c1OC(C)C` [Example 17, 2-(4-hydroxyphenylthio)-7-isobutoxy-5-isopropoxy-6-methoxychromone], for which the inhibition at 10 µM is 95.1% and the IC50 was 1.3e-07 M.
The corresponding values for `COc1c(OC(C)C)cc2oc(Sc3ccc(O)c(Cl)c3)cc(=O)c2c1OC(C)C` [Example 19, 2-(3-chloro-4-hydroxyphenylthio)-5,7-diisopropoxy-6-methoxychromone] are 69.8% and 4e-06 M.
The corresponding values for `COc1c(OC(C)C)cc2oc(Sc3ccc(O)cc3)cc(=O)c2c1O` [Example 26, 5-hydroxy-2-(4-hydroxyphenylthio)-7-isopropoxy-6-methoxychromone] are 98.1% and 6.5e-08 M.
Taken in the same sequence, the figures for `CCOc1c(OC)c(OCC=C(C)C)cc2oc(Sc3ccc(O)cc3)cc(=O)c12` [Example 31, 5-ethoxy-2-(4-hydroxyphenylthio)-6-methoxy-7-prenyloxychromone] were 100% and 2.3e-07 M.
For the compound `COc1cc(OC)c2c(=O)cc(Sc3ccccc3)oc2c1` [Example 41, 5,7-dimethoxy-2-phenylthiochromone], the inhibition at 10 µM came to 52.4%.
Still for that read-out and setting: the result for `COc1cc(OC)c2c(=O)cc(Sc3ccccc3Cl)oc2c1` [Example 42, 5,7-dimethoxy-2-(2-chlorophenylthio)chromone] reads 47.7%; that for `COc1cc(OC)c2c(=O)cc(Sc3cccc(Cl)c3)oc2c1` [Example 43, 5,7-dimethoxy-2-(3-chlorophenylthio)chromone], 44%; that for `COc1cc(OC)c2c(=O)cc(Sc3ccccc3OC)oc2c1` [Example 46, 5,7-dimethoxy-2-(2-methoxyphenylthio)chromone], 28.4%.
Same read-out and setting: under `COc1cccc(Sc2cc(=O)c3c(OC)cc(OC)cc3o2)c1` [Example 47, 5,7-dimethoxy-2-(3-methoxyphenylthio)chromone] stands 36.5%; under `COc1cc(OC)c2c(=O)cc(Sc3ccccc3N)oc2c1` [Example 49, 5,7-dimethoxy-2-(2-aminophenylthio)chromone], 48.2%; under `COc1cc(OC)c2c(=O)cc(Sc3ccccc3C)oc2c1` [Example 52, 5,7-dimethoxy-2-(2-methylphenylthio)chromone], 31.7%.
Take `COc1cc(OC)c2c(=O)cc(Sc3cccc(C)c3)oc2c1` [Example 53, 5,7-dimethoxy-2-(3-methylphenylthio)chromone]: the inhibition at 10 µM turned out to be 22.8%.
Still for that read-out and setting: the result for `COc1cc(OC)c2c(=O)cc(Sc3ccccc3O)oc2c1` [Example 56, 2-(2-hydroxyphenylthio)-5,7-dimethoxychromone] reads 35.9%; that for `COc1cc(OC)c2c(=O)cc(Sc3cccc(O)c3)oc2c1` [Example 57, 2-(3-hydroxyphenylthio)-5,7-dimethoxychromone], 50.5%; that for `COc1cc(OC)c2c(=O)cc(Sc3ccccn3)oc2c1` [Example 58, 5,7-dimethoxy-2-(2-pyridylthio)chromone], 37.4%.
For the compound `COc1cc(OC)c2c(=O)cc(Sc3ccncc3)oc2c1` [Example 59, 5,7-dimethoxy-2-(4-pyridylthio)chromone], the inhibition at 10 µM was found to be 37.1%.
For `COc1cc(OC)c2c(=O)cc(Sc3nnc(N)s3)oc2c1` [Example 63, 2-(2-amino-5-thiadiazolylthio)-5,7-dimethoxychromone], the inhibition at 10 µM came out at 31.1%.
Still for that read-out and setting: the result for `COc1cc(OC)c2c(=O)cc(Sc3ccc(C(=O)O)cc3)oc2c1` [Example 64, 4-(5,7-dimethoxychromonyl-2-thio)benzoic acid] reads 52.9%; that for `COC(=O)c1ccc(Sc2cc(=O)c3c(OC)cc(OC)cc3o2)cc1` [Example 65, methyl 4-(5,7-dimethoxychromonyl-2-thio)benzoate], 23.1%.
On to `COc1cc(OC)c2c(=O)cc(Sc3ccc(CO)cc3)oc2c1` [Example 66, 5,7-dimethoxy-2-(4-hydroxymethyl-phenylthio)chromone], for which the inhibition at 10 µM stood at 31.5%.
With `CC(C)Oc1cc(OC(C)C)c2c(=O)cc(Sc3ccc(O)cc3)oc2c1` [Example 69, 5,7-diisopropoxy-2-(4-hydroxyphenylthio)chromone], the inhibition at 10 µM came out at 97.7%.
In the case of `COc1cc(OC)c2c(=O)cc(Oc3ccc(O)cc3)oc2c1` [Example 70, 2-(4-hydroxyphenoxy)-5,7-dimethoxychromone], the inhibition at 10 µM amounted to 85.5% and the IC50 is 1e-06 M.
The corresponding values for `COc1cc(OC)c2c(=O)cc(Sc3ccc(O)cc3)oc2c1` [Example 71, 2-(4-hydroxyphenylthio)-5,7-dimethoxychromone] are 88.7% and 1e-07 M.
The corresponding values for `COc1cc(O)c2c(=O)cc(Sc3ccc(O)cc3)oc2c1` [Example 72, 5-hydroxy-2-(4-hydroxyphenylthio)-7-methoxychromone] are 84% and 1e-07 M.
`COc1ccc(CSc2cc(=O)c3c(OC)cc(OC)cc3o2)cc1` [Example 73, 5,7-dimethoxy-2-(4-methoxybenzylthio)chromone]: the inhibition at 10 µM stood at 16.4%.
On the same count and under the same terms, under `COc1cc(O)c2c(=O)cc(SCc3ccc(O)cc3)oc2c1` [Example 74, 5-hydroxy-2-(4-hydroxybenzylthio)-7-methoxychromone] stands 52.1%.
Same read-out and setting: the result for `O=c1cc(SCc2ccc(O)cc2)oc2cc(O)cc(O)c12` [Example 75, 5,7-dihydroxy-2-(4-hydroxybenzylthio)chromone] reads 43.5%.
